The values that follow come from patent US11684675B2, “Dimeric collagen hybridizing peptides and methods of using” (University of Utah Research Foundation, priority 2015, dated 2023).

Assay [1] in a line: CD refolding (triple helix assembly) at 10° C. monitored at 225 nm. The assay is classed as physicochemical. The method, then: Conversion was assumed to be at 100% after 96 h incubation at 4° C., and max trimer concentration was measured via CD ellipticity at 10° C. Samples were preheated to 80° C. in the sample cuvette for 10 min before being transferred directly to the sample holder held at a constant 10° C. Sample measurement began immediately. Initial time point for analysis was determined by measuring time for a blank (lx PBS) to thermally equilibrate in these conditions.
For all peptides, conversion was assumed to be at 100% after 96 h incubation at 4° C., and max trimer concentration was measured via CD ellipticity at 10° C. Samples were preheated to 80° C. in the sample cuvette for 10 min before being transferred directly to the sample holder held at a constant 10° C. Sample measurement began immediately. Initial time point for analysis was determined by measuring time for a blank (1×PBS) to thermally equilibrate in these conditions. This was set as the zero point for all peptides, as the large jump in CD due to temperature makes the initial jump irresolvable. (A) Rate of assembly of CHP 9 (60, 30, and 15 μM), over 2 h, monitored at 225 nm. (B) Rate of assembly of CHP 9d (30, 15, and 7.5 μM, corresponding to same CHP strand concentration from panel A), over 2 h, monitored at 225 nm. (C) Rate of assembly of CHP 6 (150 and 75 μM), over 2 h, monitored at 225 nm.
FIGS. 12A and 12B show CD refolding at 10° C. of CMPs monitored at 225 nm. CMPs were heated to 80° C. for 5 minutes before being placed into the CD and initial 2 min of monitored data was removed to eliminate thermal transition. Signal was normalized to that of a fully folded peptide.
Circular Dichroism: Circular Dichroism (CD) was measured for all peptides at 225 nm. Melting curves were taken on peptides between 10 and 80° C. at a heating rate of 0.5° C./min, with pauses at each 1° C. Refolding experiments were performed after peptide solutions were incubated at 4° C. for at least 12 hours. Concentrations were normalized to strand concentration.

For assay [2], the system named is crosslinked gelatin films. Description: Retention of CF-labelled CHPs in crosslinked gelatin films (bound at 4° C., washed at 25° C./r.t.). The assay is classed as binding, porcine. Conditions: Example 2, washes at 4° C. then 25° C. The method, then:
(A) Fraction of peptide remaining in a crosslinked gelatin film after 17 h at 25° C. (10 total washes). Values are normalized to fluorescence remaining in wells after 6 washes at 4° C. (>95% removal of CHPs 9r, 6r, and 5r). All washes performed in 1×PBS. (B) CHPs (15 μM) premixed into 10% porcine gelatin and preheated to 80° C. (10 min) before being added to a 96 well plate. Excess CHP-gelatin mixture was removed, then the premix was incubated at 4° C. for 2 hours. Wells were washed at 4° C., 5 times (>95% removal of CHPs 9r, 6r, and 5r). Wells were then washed for 2 hours (6 washes total) at 25° C. to monitor CHP remaining in the well. (C) Fluorescence of CHPs remaining in crosslinked gelatin after incubation at 37° C. overnight without preheating, followed by washing with 1×PBS at 37° C. (20 h). (D) Fluorescence of CHPs remaining in crosslinked gelatin after incubation at 37° C. overnight (80° C. preheating, 10 min), followed by washing with 1×PBS at 37° C. (20 h).
Binding to Gelatin films. Peptide solutions (20 μM in PBS) were preheated to 80° C. for 10 minutes before being added directly to the crosslinked gelatin films. Peptides were allowed to fully equilibrate with the gel at 4° C. overnight before being exposed to repeated washes (4×30 min) at 4° to fully remove any non-specifically bound peptide. Gelatin wells were then washed at r.t. with PBS (5×1 h, lx 12 h) to measure retention within the gelatin films. […] To eliminate the possibility of these peptides merely becoming physically entrapped within the gelatin after forming triple helix or forming triple helix before binding, binding affinity was verified by producing a premix of the CHPs and Gelatin to eliminated diffusion-limited binding before washing the wells in a similar manner.
Fluorescence Binding: CHP binding to gelatin was monitored by conjugating a fluorescent Carboxyfluorescein (CF) molecule to the N-terminus of each peptide via standard SPPS. Solutions of the fluorescent peptides were heated to 80° C. for 5 min before injecting 50 μL onto a pre-prepared EDC-crosslinked thin gelatin film in a 96 well plate. Peptides incubated overnight at 4° C., then washed with repeated rounds of 4° C. 1×PBS followed by 25° C. 1×PBS.

[(GPO)6G3)2KG [6d]: the “refolding after two hours of incubation” value in assay [1] (10° C., same strand concentration) was “almost completely refolded in two hours”. In addition, in assay [1] (CD refolding, 37.5 μM), the “time at which half refolded” value was found to be 10 min. In addition, the “binding affinity to gelatin compared to monomeric form” value in assay [2] is listed as “clear increase in binding affinity”.
